Read-outs that look alike come from different tables or passages of the source.

Series [1] is described as follows: Activity tests: necessary administration quantities. In kind it is in vivo. The settings on record: Form: Free (oral); rats/mice. The source says:
(§1) Toxicity and Activity Tests

Series [2] is described as follows: Toxicity tests. In kind it is in vivo. The settings on record: rats/mice; form not stated.
Description: as §1

The test system of series [3] is Entamoeba histolytica HM-1:IMSS. Put plainly: Cytotoxicity of alkylphosphocholines on amebae (Trypan blue count, Probit). In kind it is cell-based. The settings on record: strain HM-1:IMSS, read-out: ED50 (the source's name). The method, then: (§2) Entamoeba histolytica SFL-3 and HM-1: IMSS (American Type Culture collection, order number ATCC 30459), pathogenic amebae of zymodeme II, were cultured, at 37° C., in TYI-S-33 medium (Diamond et al., Trans. Roy. Soc. Trop. Med. Hyg. 72: 431-432 (1978)) containing 10% bovine serum. The cultures of SFL-3 were kept in 100 ml glass bottles while the cultures of HM-1:IMSS were kept in 50 ml tissue culture flasks.
(§3) 38 h cultures of E histolytica were used for measuring the cytotoxicity of the alkylphosphocholines. The amebae were released from the culture vessels by shaking, centrifuged down for 3 min at 2 000 revolutions per minute and 4° C. in a Heraeus Minifuge RF, resuspended in 20 ml of TYI-S-33 medium and counted in a hemocytometer chamber.
(§4) For each measurement, in each case 8-10×10^5 amebae were provided in 12 ml of medium in Pyrex tubes fitted with a screw closure and the alkylphosphocholine was added in a volume of 660 μl. […] (w/v) ethanol in double-distilled water was used for dissolving hexadecylphosphocholine and octadecylphosphocholine, while double-distilled water on its own was used for all the other substances and the liposomal preparations. 5% ethanol or double-distilled water was correspondingly added to the control cultures. The concentrations of alkylphosphocholines employed were 100 μM, 50 μM, 20 μM, 10 μM and 5 μM. Six cultures were in each case prepared for each of the concentrations.
(§5) The effect of the alkylphosphocholines was determined after 24 h and after 48 h. For this, in each case three of the cultures were shaken up and transferred into in each case three plastic centrifuge tubes. The amebae were centrifuged down for 5 min at 2 200 rpm and 4° C. and suspended in a final volume of 1 ml in a 1:1 mixture of Trypan blue (Sigma) and PBS. Each of the samples was then counted in the hemocytometer and the number of living and dead, stained blue due to having taken up the die, amebae was recorded.
(§6) The results were analyzed using the “Probit” program (Wernsdorfer and Wernsdorfer, Mitt. Österr. Ges. Tropenmed. Parasitol. 17:221-228 (1995)).
(§7) The tests were carried out as described above. The E. histolytica strains SFL-3 and HM-1:IMSS were tested. In each case six cultures were prepared for each concentration of alkylphosphocholine in pure or liposomal form. Three of the cultures were counted after […] and three further cultures were counted after 48 h. In each case two independent experiments were carried out for each of the two strains.

The test system of series [4] is Entamoeba histolytica SFL-3. Described as above. In kind it is cell-based. The settings on record: read-out: ED50 (the source's name). On the procedure:
as §2, §3, §4, §5, §6, §7

The molecule `CCCCCCCCCCCCCCCCOP(=O)([O-])OCC[N+](C)(C)C` [APC 1, hexadecylphosphocholine] displayed a Necessary administration quantities in series [1] of 60 µmol. In series [2], this molecule registered a Toxicity of 90 µmol. For the same molecule, the EC50 in series [3] (day 1 (24 h)) came out at 94 µM; in series [3] (day 2 (48 h)), 83 µM; in series [4] (strain SFL-3, day 1 (24 h)) it was 88 µM; in series [4] (strain SFL-3, day 2 (48 h)) it was 50 µM.

As to `CCCCCCCCCCCCCCCCCCOP(=O)([O-])OCC[N+](C)(C)C` [APC 2, octadecylphosphocholine], the EC50 came to 80 µM in series [3] (day 1 (24 h)); 70 µM in series [3] (day 2 (48 h)); 36 µM in series [4] (strain SFL-3, day 1 (24 h)); 24 µM in series [4] (strain SFL-3, day 2 (48 h)).

Regarding `CCCCCCCC/C=C\CCCCCCCCOP(=O)([O-])OCC[N+](C)(C)C` [APC 9, oleylphosphocholine], in series [1], the Necessary administration quantities was 20 µmol. In addition, the EC50 is 121 µM in series [3] (day 1 (24 h)); 80 µM in series [3] (day 2 (48 h)); 32 µM in series [4] (strain SFL-3, day 1 (24 h)); 16 µM in series [4] (strain SFL-3, day 2 (48 h)).

As to `CCCCCCCC/C=C\CCCCCCCCCOP(=O)([O-])OCC[N+](C)(C)C` [APC 10, (Z)-10-nonadecenylphosphocholine], the EC50 worked out at 112 µM in series [3] (day 1 (24 h)); 87 µM in series [3] (day 2 (48 h)); 24 µM in series [4] (strain SFL-3, day 1 (24 h)); 20 µM in series [4] (strain SFL-3, day 2 (48 h)).

For `CCCCCCCC/C=C\CCCCCCCCCCCCOP(=O)([O-])OCC[N+](C)(C)C` [Erucyl-PC], the Necessary administration quantities in series [1] came to 100 µmol.

`CCCCCCCCCCCCCCCCCCCOP(=O)([O-])OCC[N+](C)(C)C` [Nonadecyl-PC] showed a Necessary administration quantities in series [1] of 20 µmol.
